Our source for the Km values is paper PMC9127867, “Analysis of the β-Glucosidase Family Reveals Genes Involved in the Lignification of Stone Cells in Chinese White Pear (Pyrus bretschneideri Rehd.)” (Frontiers in Plant Science, 2022).

The target of the test is T1, GST-PbBGLU1 (Pyrus x bretschneideri, UniProt Z9UO32JHD5).
T1 construct: full-length CDS in pGEX4T-1, N-terminal GST tag kept, E. coli BL21(DE3)
T1 sequence (Z9UO32JHD5 522-1019 limits assumed): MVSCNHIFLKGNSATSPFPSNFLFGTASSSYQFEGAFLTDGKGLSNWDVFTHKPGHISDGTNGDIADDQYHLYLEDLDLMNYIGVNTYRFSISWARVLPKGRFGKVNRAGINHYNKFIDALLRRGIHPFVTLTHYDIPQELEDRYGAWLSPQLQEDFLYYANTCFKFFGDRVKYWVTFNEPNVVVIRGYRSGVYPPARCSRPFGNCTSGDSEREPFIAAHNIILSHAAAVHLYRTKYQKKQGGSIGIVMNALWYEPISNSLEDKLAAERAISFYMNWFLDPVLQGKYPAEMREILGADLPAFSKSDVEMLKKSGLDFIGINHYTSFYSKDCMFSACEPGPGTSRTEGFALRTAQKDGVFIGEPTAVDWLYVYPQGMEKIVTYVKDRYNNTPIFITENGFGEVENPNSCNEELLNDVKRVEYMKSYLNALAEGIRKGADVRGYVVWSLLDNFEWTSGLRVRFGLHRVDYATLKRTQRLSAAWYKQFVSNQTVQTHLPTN
The test is described as follows: HPLC of product, double reciprocal plot. It counts as biochemical. The following applies: 35 °C, PBS pH 7.2–7.4, 50 mM MgSO4, 200 mM KCl, 0.1% β-mercaptoethanol. The text has this: HPLC of product, double reciprocal plot on GST-PbBGLU1

With `COc1cc(/C=C/CO)cc(OC)c1O[C@@H]1O[C@H](CO)[C@@H](O)[C@H](O)[C@H]1O` [syringin], the Km (usually the concentration of substrate that gives half-maximal velocity) stood at 101 ± 6.51 µM.
As for `COc1cc(/C=C/CO)ccc1O[C@@H]1O[C@H](CO)[C@@H](O)[C@H](O)[C@H]1O` [coniferin], the Km came to 103 ± 3.89 µM.
